Data as given in the Kinase Knowledgebase extract (Sharma et al. 2016).
Values after ≈ are worked out from the molar mass of the structure shown.

molecular target: EGFR (UniProt P00533)
Sequence (P00533 whole entry, looked up): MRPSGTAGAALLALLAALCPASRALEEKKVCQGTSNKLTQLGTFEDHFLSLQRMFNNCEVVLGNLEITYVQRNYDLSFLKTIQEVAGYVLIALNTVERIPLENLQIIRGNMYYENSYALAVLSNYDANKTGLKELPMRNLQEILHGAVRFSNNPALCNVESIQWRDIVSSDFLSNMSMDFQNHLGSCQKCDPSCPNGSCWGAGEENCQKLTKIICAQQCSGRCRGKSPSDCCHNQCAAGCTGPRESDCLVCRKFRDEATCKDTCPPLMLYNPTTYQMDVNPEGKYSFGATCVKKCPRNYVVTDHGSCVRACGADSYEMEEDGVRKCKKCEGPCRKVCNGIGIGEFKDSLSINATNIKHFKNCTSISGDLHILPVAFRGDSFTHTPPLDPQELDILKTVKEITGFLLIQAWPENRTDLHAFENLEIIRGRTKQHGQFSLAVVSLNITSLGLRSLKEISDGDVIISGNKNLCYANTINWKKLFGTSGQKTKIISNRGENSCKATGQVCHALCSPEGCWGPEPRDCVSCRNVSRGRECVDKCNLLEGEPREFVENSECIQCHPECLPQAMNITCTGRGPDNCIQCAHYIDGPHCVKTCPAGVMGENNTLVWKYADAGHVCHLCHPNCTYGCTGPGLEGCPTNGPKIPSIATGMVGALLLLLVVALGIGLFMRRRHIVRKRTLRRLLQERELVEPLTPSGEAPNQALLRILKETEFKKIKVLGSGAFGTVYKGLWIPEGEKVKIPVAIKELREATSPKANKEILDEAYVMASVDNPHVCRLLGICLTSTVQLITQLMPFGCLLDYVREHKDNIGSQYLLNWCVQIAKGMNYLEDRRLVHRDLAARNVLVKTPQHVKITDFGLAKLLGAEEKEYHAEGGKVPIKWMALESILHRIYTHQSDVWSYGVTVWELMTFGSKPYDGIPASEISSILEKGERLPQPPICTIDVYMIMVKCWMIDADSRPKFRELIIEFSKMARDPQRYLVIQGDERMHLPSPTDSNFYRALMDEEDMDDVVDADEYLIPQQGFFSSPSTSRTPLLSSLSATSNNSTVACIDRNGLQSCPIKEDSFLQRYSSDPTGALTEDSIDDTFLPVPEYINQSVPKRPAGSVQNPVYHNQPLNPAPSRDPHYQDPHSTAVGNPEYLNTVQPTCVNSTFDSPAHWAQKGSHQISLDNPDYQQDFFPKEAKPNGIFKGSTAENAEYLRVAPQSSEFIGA

SMILES	IC50
COc1ccc2c(c1)nc(Nc1ccc3[nH]ccc3c1)n2-c1ncnc(Nc2cc(OC)c(OC)c(OC)c2)n1.COc1ccc2nc(Nc3ccc4[nH]ccc4c3)n(-c3ncnc(Nc4cc(OC)c(OC)c(OC)c4)n3)c2c1	> 4.5 µg/mL
Cc1ccc2c(c1)CCCN2c1ncnc(Nc2cc[nH]n2)n1	0.4 to 2.4 µg/mL (≈ 1.3 to 7.81 µM)
COc1ccc(Nc2ncnc(-n3cccc3)n2)c(OC)c1	> 4.5 µg/mL
NC(=O)Cc1cccc(Nc2ncnc(-n3c(NCc4ccccc4)nc4ccccc43)n2)c1	< 0.4 µg/mL
c1ccc(-c2ncnc(Nc3ccc(OCCCN4CCOCC4)cc3)n2)cc1	> 4.5 µg/mL
C=CCNc1ncccc1-c1ncnc(Nc2ccc(C(N)=O)cc2)n1	> 4.5 µg/mL
Fc1cccc(Nc2ncnc(-c3cccs3)n2)c1	> 4.5 µg/mL
O=c1[nH]c2ccccc2n1-c1ncnc(Nc2ccc(NS(=O)(=O)c3ccc([N+](=O)[O-])cc3)cc2)n1	0.4 to 2.4 µg/mL (≈ 0.793 to 4.76 µM)
COc1ccc(Nc2ncnc(N(C)C3CCCCC3)n2)cc1OC	< 0.4 µg/mL
Clc1cccc(Nc2ncnc(-n3cccc3)n2)c1	> 4.5 µg/mL
Nc1ncnc(Nc2cccc(Cl)c2)n1	> 4.5 µg/mL
COc1cccc(Nc2ncnc(Nc3cc(-c4ccccc4)n[nH]3)n2)c1	0.4 to 2.4 µg/mL (≈ 1.11 to 6.68 µM)
OCCCNc1ncnc(-c2ccccc2)n1	> 4.5 µg/mL
O=c1[nH]c2ccccc2n1-c1ncnc(Nc2ccc(F)c(Cl)c2)n1	> 4.5 µg/mL
Nc1ncnc(Nc2nc(-c3ccccc3)cs2)n1	> 4.5 µg/mL
O=C(O)Cc1cccc(Nc2ncnc(-n3c(NCc4ccccc4)nc4ccccc43)n2)c1	< 0.4 µg/mL
Cc1ccc(Nc2ncnc(N)n2)cc1	> 4.5 µg/mL
CN(c1cccc(Cl)c1)c1ncnc(Nc2cc(Cl)c(Cl)c(Cl)c2)n1	> 4.5 µg/mL
CN(c1ccc2c(cnn2Cc2ccccc2)c1)c1ncnc(Nc2cccc(Br)c2)n1	< 0.4 µg/mL
CC(C)Nc1ncccc1-c1ncnc(Nc2ccc(C(N)=O)cc2)n1	> 4.5 µg/mL
O=c1[nH]c2ccccc2n1-c1ncnc(Nc2ccccn2)n1	> 4.5 µg/mL

SMILES	IC50
COc1ccc(Nc2ncnc(NCCNC(C)=O)n2)cc1OC	> 4.5 µg/mL
COc1ccc(Nc2ncnc(-n3c(N)nc4ccccc43)n2)cc1	2.4 to 3.5 µg/mL (≈ 7.2 to 10.5 µM)
Nc1nc2ccccc2n1-c1ncnc(Nc2ccc(Cl)cc2)n1	0.4 to 2.4 µg/mL (≈ 1.18 to 7.11 µM)
COc1ccc(CNc2nc3ccccc3n2-c2ncnc(Nc3cccc(CC(=O)O)c3)n2)cc1	> 4.5 µg/mL
COc1cc(Nc2ncnc(Cc3ccc4c(cnn4Cc4ccccc4)c3)n2)cc(OC)c1OCCN1CCOCC1	< 0.4 µg/mL
COC(=O)c1ccc(-c2cc(Nc3ncnc(NCCc4ccc(OC)cc4)n3)[nH]n2)cc1	> 4.5 µg/mL
CNS(=O)(=O)Cc1ccc(Nc2ncnc(Nc3cc(-c4ccc(C(=O)OC)cc4)n[nH]3)n2)cc1	2.4 to 3.5 µg/mL (≈ 4.85 to 7.08 µM)
CN(c1cccc(Cl)c1)c1ncnc(NCCOCCO)n1	> 4.5 µg/mL
CN1CCN(Cc2cccc(Nc3ncnc(Nc4ccc5c(cnn5Cc5ccccc5)c4)n3)c2)CC1	> 4.5 µg/mL
COc1ccc(Nc2ncnc(Nc3ccc(OCc4ccccc4)cc3)n2)cc1	> 4.5 µg/mL
COc1cc(OC)nc(Nc2ncnc(-n3c(=O)[nH]c4ccccc43)n2)n1	> 4.5 µg/mL
COc1ccc(Nc2ncnc(NCCCN3CCN(C)CC3)n2)cc1OC	> 4.5 µg/mL
CN(c1cccc(Cl)c1)c1ncnc(Nc2ccccc2)n1	< 0.4 µg/mL
COC(=O)c1ccc(-c2cc(Nc3ncnc(Nc4cccc(CC(=O)O)c4)n3)[nH]n2)cc1	0.4 to 2.4 µg/mL (≈ 0.898 to 5.39 µM)
Nc1ncnc(Nc2ccc(F)cc2F)n1	> 4.5 µg/mL
Nc1nc2ccccc2n1-c1ncnc(Nc2cccnc2)n1	2.4 to 3.5 µg/mL (≈ 7.89 to 11.5 µM)
CN(c1cccc(Cl)c1)c1ncnc(Nc2cccc(OC(F)(F)F)c2)n1	< 0.4 µg/mL
O=C(O)Cc1cccc(Nc2ncnc(Nc3cccc(Br)c3)n2)c1	< 0.4 µg/mL
COCCOc1ccc(Nc2ncnc(-n3c(N)nc4ccccc43)n2)cc1OCCOC	> 4.5 µg/mL
CN(c1cccc(Cl)c1)c1ncnc(Nc2ccc(OCCO)cc2)n1	< 0.4 µg/mL

Further lines, results first:

IC50	SMILES
< 0.4 µg/mL	COc1cc(Nc2ncnc(N(CCC(C)C)c3ccc(Cl)cc3)n2)cc(OC)c1OC
> 4.5 µg/mL	COc1cc(Nc2ncnc(-c3cccnc3Nc3cccc(C#N)c3)n2)cc(OC)c1OC
< 0.4 µg/mL	COc1cc(Nc2ncnc(Nc3ccc(Br)cc3F)n2)cc(OC)c1OC
0.4 to 2.4 µg/mL (≈ 1.02 to 6.1 µM)	COc1cc(Nc2ncnc(Nc3ccc4cn[nH]c4c3)n2)cc(OC)c1OC
> 4.5 µg/mL	COc1cc(Nc2ncnc(-n3c(NCc4ccccc4C)nc4ccccc43)n2)cc(OC)c1OC
> 4.5 µg/mL	COc1cc(Nc2ncnc(-c3cccnc3Nc3ccc(C(F)(F)F)cc3)n2)cc(OC)c1OC
> 4.5 µg/mL	COc1ccc(CNc2nc3ccccc3n2-c2ncnc(Nc3cc(OC)c(OC)c(OC)c3)n2)cc1
> 4.5 µg/mL	COc1cc(Nc2ncnc(-n3c(=O)sc4cc(Br)ccc43)n2)cc(OC)c1OC
> 4.5 µg/mL	COc1cc(Nc2ncnc(-n3c(NCc4ccc([N+](=O)[O-])cc4)nc4ccccc43)n2)cc(OC)c1OC
0.4 to 2.4 µg/mL (≈ 1.02 to 6.1 µM)	COc1cc(Nc2ncnc(N3c4ccccc4CC3C)n2)cc(OC)c1OC (configuration not stated)
> 4.5 µg/mL	COc1cc(Nc2ncnc(-n3c(Nc4ccc(C(C)C)cc4)nc4ccccc43)n2)cc(OC)c1OC
> 4.5 µg/mL	COc1cc(Nc2ncnc(N3CCN(C(=O)OC(C)(C)C)CC3)n2)cc(OC)c1OC
> 4.5 µg/mL	COc1ccc(Nc2nc3ccccc3n2-c2ncnc(Nc3cc(OC)c(OC)c(OC)c3)n2)c(C)c1
> 4.5 µg/mL	COc1cc(Nc2ncnc(Nc3c(C)n(C)n(-c4ccccc4)c3=O)n2)cc(OC)c1OC
0.4 to 2.4 µg/mL (≈ 0.815 to 4.89 µM)	COc1cc(Nc2ncnc(Nc3cc(-c4ccc(C(=O)N(C)C)cc4)n[nH]3)n2)cc(OC)c1OC
> 4.5 µg/mL	COc1cc(Nc2ncnc(Nc3ncnc4[nH]cnc34)n2)cc(OC)c1OC
> 4.5 µg/mL	COc1cc(Nc2ncnc(-c3cccc4ccccc34)n2)cc(OC)c1OC
> 4.5 µg/mL	COc1cc(Nc2ncnc(-c3cccnc3Cl)n2)cc(OC)c1OC

IC50	SMILES
3.5 to 4.5 µg/mL (≈ 6.83 to 8.78 µM)	COc1ccc(Nc2ncnc(Nc3cc(OC)c(OC)c(OC)c3)n2)cc1OCCN1CCOCC1
> 4.5 µg/mL	CCN(CC)C(=O)C1CCCN(c2ncnc(Nc3cc(OC)c(OC)c(OC)c3)n2)C1 (configuration not stated)
< 0.4 µg/mL	COc1ccc(Nc2ncnc(N(C)c3ccccc3Cl)n2)cc1OC
> 4.5 µg/mL	COc1ccc(Sc2ncnc(Nc3cc(OC)c(OC)c(OC)c3)n2)cc1
0.4 to 2.4 µg/mL (≈ 1 to 6.01 µM)	COc1cc(Nc2ncnc(Nc3cc(C(C)(C)C)[nH]n3)n2)cc(OC)c1OC
0.4 to 2.4 µg/mL (≈ 0.878 to 5.27 µM)	COc1cc(Nc2ncnc(N(CC(=O)O)c3ccc4c(c3)OCO4)n2)cc(OC)c1OC
> 4.5 µg/mL	COc1cc(Nc2ncnc(-n3ccc4cc(Cl)ccc43)n2)cc(OC)c1OC
> 4.5 µg/mL	COc1cc(Nc2ncnc(-n3ccnc3NCc3ccccc3)n2)cc(OC)c1OC
> 4.5 µg/mL	COc1cc(NC(=O)Nc2ncnc(Nc3cc(OC)c(OC)c(OC)c3)n2)cc(OC)c1
< 0.4 µg/mL	COc1cc(Nc2ncnc(Nc3ccc(Cl)cc3F)n2)cc(OC)c1OC
> 4.5 µg/mL	COc1cc(Nc2ncnc(-c3cccnc3NCc3ccccn3)n2)cc(OC)c1OC
0.4 to 2.4 µg/mL (≈ 1.01 to 6.04 µM)	COc1cc(Nc2ncnc(Nc3ccc(C(=O)O)cc3)n2)cc(OC)c1OC
< 0.4 µg/mL	COc1ccc(Nc2ncnc(Nc3ccc(C)c(O)c3)n2)cc1OC
< 0.4 µg/mL	COc1ccc(Nc2ncnc(N(C)c3ccc(F)cc3F)n2)cc1OC
> 4.5 µg/mL	COc1cc(Nc2ncnc(-n3c(NCC(N)=O)nc4ccccc43)n2)cc(OC)c1OC
< 0.4 µg/mL	COc1ccc(Nc2ncnc(Nc3cccc(C)c3)n2)cc1OC
> 4.5 µg/mL	COc1cc(Nc2ncnc(-c3cccnc3CCN)n2)cc(OC)c1OC
> 4.5 µg/mL	COc1cc(Nc2ncnc(-n3ncc4ccccc43)n2)cc(OC)c1OC
